Experiment [1] relates to SKBR3 human breast cancer cells. As to the kind of experiment: histamine release and tumor cell killing with effector cells (PBMC or RBL-Sx-38). The class given is cell-based. Conditions: poly IC 1 to 25 μg/ml added 30 minutes to 4 hours post co-incubation. The procedure:
Tumor cells are incubated with increasing concentrations of Her-2 specific IgG or IgE and combined with the effector cells. Evidence of local effector cell activation is measured by assessing histamine and or beta hexosimimidase release into the culture supernatant. Confirmatory experiments showing specificity for the Her-2 Ag can be conducted using anti-NP IgE and NP-HSA or anti-PSA IgE and PSA or conjugated PSA. In addition to immediate hypersensitivity, the target cells can be pre-labeled with Calcein AM and the ability of the anti-Her2 IgE or IgG to induce tumor killing can be monitored via direct effect of the PBMC or the RBL-Sx-38 cells in inducing release of the Calcein AM label.
Having established the baseline activity of a representative Ag specific IgE monoclonal in terms of both histamine release and basic tumor cell killing, the effect of corticosteroid and specific adjuvant on the model can be measured. […] The ability of TLR3 stimulation to augment the ADCC effect is addressed by adding low concentrations (1 to 25 μg/ml) of poly IC (Sigma) to the system at various time points.

Experiment [2] has as its system transgenic mice expressing the human FcεRIα. As to the kind of experiment: passive cutaneous anaphylaxis with tumor microspheroids. The class given is in vivo. Conditions: agent administered to the mouse. The procedure: Passive cutaneous anaphylaxis is performed in transgenic mice expressing the human FcεRIα. Transgenic mice are shaved and injected intradermally in different regions of the dorsal side with […] of 6 mg/ml histamine base (HollisterStier, Spokane, Wash.), 1 μg anti-PSA IgE, CT26-PSA or CT26-Neo microspheroid alone, 2 μg of crosslinker anti-human kappa antibody alone, 1 μg anti-PSA IgE plus CT26-PSA or CT26-Neo microspheroid, or 1 μg anti-PSA IgE crosslinked with 2 μg of an anti-human kappa antibody. After 15 min, 1% Evans Blue in […] saline is injected i.v. Mice are sacrificed 20 min later, and local cutaneous anaphylaxis is assessed visually by the blue leakage in the area surrounding the injection. […] This effect is not prevented by administration of cortisol to the mouse; however pre-administration of an H1 blocking agent inhibits the size of the response.

This is an account of results in US8945566B2, “Methods for improving the bioactivity of therapeutic IgE antibodies for the treatment of disease” (Quest PharmaTech, Inc., priority 2008, dated 2015).

In the case of poly IC, the “cell killing (ADCC effect)” value in experiment [1] is listed as “enhances the amount of killing observed”. Regarding `C[C@]12CCC(=O)C=C1CC[C@@H]1[C@@H]2[C@@H](O)C[C@@]2(C)[C@H]1CC[C@]2(O)C(=O)CO` [cortisol], the “effect of co-medication on IgE-induced wheal and flare reaction” value in experiment [2] is recorded as “not prevented”.
